From patent US6855710B2, “Substituted indolines with an inhibitory effect on various kinases and complexes of CDKs” (Boehringer Ingelheim Pharma KG, priority 1998, dated 2005)

First: CS(=O)(=O)Nc1cccc(N/C(=C2\C(=O)Nc3ccccc32)c2ccccc2)c1 [Example 183, (Z)-3-[1-(3-methylsulphonylamino-phenylamino)-1-phenyl-methylidene]-2-indolinone]
Second: O=CNc1cccc(N/C(=C2\C(=O)Nc3ccccc32)c2ccccc2)c1 [Example 30, (Z)-3-[1-(3-formylamino-phenylamino)-1-phenyl-methylidene]-2-indolinone]
The melting point of the first is higher: 275 °C for the first, 231 °C for the second.

Compared with `O=C1Nc2ccccc2/C1=C(/Nc1ccc(C(=O)N2CCCC2)cc1)c1ccccc1` [Example 386, (Z)-3-{1-[4-(pyrrolidin-1-ylcarbonyl)-phenylamino]-1-phenyl-methylidene}-2-indolinone], `O=C1Nc2ccccc2/C1=C(/Nc1ccc(S(=O)(=O)N2CCCC2)cc1)c1ccccc1` [Example 397, (Z)-3-{1-[4-(pyrrolidin-1-ylsulphonyl)-phenylamino]-1-phenyl-methylidene}-2-indolinone] is higher in melting point: 127 to 129 °C for the first, 293 to 294 °C for the second.

First: CNC(=O)CN(c1cccc(N/C(=C2\C(=O)Nc3ccccc32)c2ccc(CN)cc2)c1)S(C)(=O)=O [Example 418, (Z)-3-{1-[3-(N-methylaminocarbonylmethyl-N-methylsulphonyl-amino)-phenylamino]-1-(4-aminomethyl-phenyl)-methylidene}-2-indolinone]
Second: CC(=O)NCc1ccc(/C(Nc2cccc(N(CCN(C)C)S(C)(=O)=O)c2)=C2/C(=O)Nc3ccccc32)cc1 [Example 423, (Z)-3-{1-[3-(N-(2-dimethylaminoethyl)-N-methylsulphonyl-amino)-phenylamino]-1-(4-acetylaminomethyl-phenyl)-methylidene}-2-indolinone]
The melting point of the first is lower: 164 °C for the first, 180 °C for the second.

First: CCCC(=O)N(CCN(C)C)c1ccc(N/C(=C2\C(=O)Nc3ccc([N+](=O)[O-])cc32)c2ccccc2)cc1 [Example 331, (Z)-3-{1-[4-(N-(2-dimethylaminoethyl)-N-propylcarbonyl-amino)-phenylamino]-1-phenyl-methylidene}-5-nitro-2-indolinone]
Second: CN(c1ccc(N/C(=C2\C(=O)Nc3ccc([N+](=O)[O-])cc32)c2ccccc2)cc1)S(C)(=O)=O [Example 197, (Z)-3-{1-[4-(N-methyl-N-methylsulphonyl-amino)-phenylamino]-1-phenyl-methylidene}-5-nitro-2-indolinone]
The melting point of the first is lower: 275 to 277 °C for the first, 306 to 308 °C for the second.

First: O=C1Nc2ccc([N+](=O)[O-])cc2/C1=C(/Nc1ccc(CCN2CCCCCC2)cc1)c1ccccc1 [Example 265, (Z)-3-{1-[4-(2-hexamethyleneimino-ethyl)-phenylamino]-1-phenyl-methylidene}-5-nitro-2-indolinone]
Second: O=C1Nc2ccc([N+](=O)[O-])cc2/C1=C(/Nc1ccc(CN2CCCCC2)cc1)c1ccc(Cl)cc1 [Example 443, (Z)-3-[1-(4-piperidinomethyl-phenylamino)-1-(4-chlorophenyl)-methylidene]-5-nitro-2-indolinone]
The melting point of the first is lower: 217 to 222 °C for the first, 309 to 311 °C for the second.

Compared with `CN(Cc1ccc(N/C(=C2\C(=O)Nc3ccc([N+](=O)[O-])cc32)c2ccccc2)cc1)c1ccccc1` [Example 234, (Z)-3-{1-[4-(N-methyl-N-phenyl-aminomethyl)-phenylamino]-1-phenyl-methylidene}-5-nitro-2-indolinone], `CN(C(=O)CN1CCN(Cc2ccccc2)CC1)c1ccc(N/C(=C2\C(=O)Nc3ccc([N+](=O)[O-])cc32)c2ccccc2)cc1` [Example 104, (Z)-3-{1-[4-(N-(4-benzylpiperazinomethylcarbonyl)-N-methyl-amino)-phenylamino]-1-phenyl-methylidene}-5-nitro-2-indolinone] is lower in melting point: 228 to 230 °C for the first, 201 to 203 °C for the second.

Compared with `CCS(=O)(=O)N(CC(=O)N(C)CCN(C)C)c1ccc(N/C(=C2\C(=O)Nc3ccccc32)c2ccccc2)cc1` [Example 302, (Z)-3-{1-[4-(N—((N-(2-dimethylaminoethyl)-N-methyl-amino)-carbonylmethyl)-N-ethylsulphonyl-amino)-phenylamino]-1-phenyl-methylidene}-2-indolinone], `CN(C)C(=O)CN(c1ccc(N/C(=C2\C(=O)Nc3ccccc32)c2ccccc2)cc1)S(C)(=O)=O` [Example 193, (Z)-3-{1-[4-(N-dimethylaminocarbonylmethyl-N-methylsulphonylamino)-phenylamino]-1-phenyl-methylidene}-2-indolinone] is higher in melting point: 170 to 172 °C for the first, 260 to 262 °C for the second.

Compared with `CC(C)(C)OC(=O)NCCc1ccc(N/C(=C2\C(=O)Nc3ccc([N+](=O)[O-])cc32)c2ccccc2)cc1` [Example 127, (Z)-3-{1-[4-(2-tert.butoxycarbonylamino-ethyl)-phenylamino]-1-phenyl-methylidene}-5-nitro-2-indolinone], `Nc1ccc(N/C(=C2\C(=O)Nc3ccc([N+](=O)[O-])cc32)c2ccccc2)cc1` [Example 91, (Z)-3-[1-(4-aminophenylamino)-1-phenyl-methylidene]-5-nitro-2-indolinone] is higher in melting point: 213 to 214 °C for the first, 269 °C for the second.

First: CN(C(=O)CN1CCCC1)c1ccc(N/C(=C2\C(=O)Nc3ccccc32)c2ccccc2)cc1 [Example 369, (Z)-3-{1-[4-(N-(pyrrolidin-1-ylmethylcarbonyl)-N-methyl-amino)-phenylamino]-1-phenyl-methylidene}-2-indolinone]
Second: CN(c1ccc(N/C(=C2\C(=O)Nc3ccccc32)c2ccccc2)cc1)S(=O)(=O)CCN1CCOCC1 [Example 384, (Z)-3-{1-[4-(N-(2-morpholinoethylsulphonyl)-N-methyl-amino)-phenylamino]-1-phenyl-methylidene}-2-indolinone]
The melting point of the first is higher: 253 to 255 °C for the first, 115 to 117 °C for the second.

First: CCNC(=O)Nc1ccc(N/C(=C2\C(=O)Nc3ccccc32)c2ccccc2)cc1 [Example 45, (Z)-3-[1-(4-ethylaminocarbonylamino-phenylamino)-1-phenyl-methylidene]-2-indolinone]
Second: CCCCNC(=O)Nc1ccc(N/C(=C2\C(=O)Nc3ccccc32)c2ccccc2)cc1 [Example 46, (Z)-3-[1-(4-butylaminocarbonylamino-phenylamino)-1-phenyl-methylidene]-2-indolinone]
The melting point of the first is higher: 264 to 265 °C for the first, 216 to 217 °C for the second.

Compared with `CC(C)S(=O)(=O)N(CCN(C)C)c1ccc(N/C(=C2\C(=O)Nc3ccccc32)c2ccccc2)cc1` [Example 309, (Z)-3-{1-[4-(N-(2-dimethylaminoethyl)-N-isopropylsulphonyl-amino)-phenylamino]-1-phenyl-methylidene}-2-indolinone], `CN(C)CCN(C)S(=O)(=O)c1ccc(N/C(=C2\C(=O)Nc3ccccc32)c2ccccc2)cc1` [Example 400, (Z)-3-{1-[4-(N-(2-dimethylaminoethyl)-N-methyl-aminosulphonyl)-phenylamino]-1-phenyl-methylidene}-2-indolinone] is lower in melting point: 247 °C for the first, 200 to 203 °C for the second.

First: CN(C(=O)C(F)(F)F)c1cccc(N/C(=C2\C(=O)Nc3ccccc32)c2ccccc2)c1 [Example 36, (Z)-3-{1-[3-(N-trifluoroacetyl-N-methyl-amino)-phenylamino]-1-phenyl-methylidene}-2-indolinone]
Second: NCc1ccc(N/C(=C2\C(=O)Nc3ccccc32)c2ccccc2)cc1 [Example 55, (Z)-3-[1-(4-aminomethyl-phenylamino)-1-phenyl-methylidene]-2-indolinone]
The melting point of the first is lower: 224 to 227 °C for the first, 236 to 237 °C for the second.

First: CCOC(=O)CNS(=O)(=O)c1ccc(N/C(=C2\C(=O)Nc3ccc([N+](=O)[O-])cc32)c2ccccc2)cc1 [Example 410, (Z)-3-{1-[4-(ethoxycarbonylmethylaminosulphonyl)-phenylamino]-1-phenyl-methylidene}-5-nitro-2-indolinone]
Second: O=C(CN1CCOCC1)NCc1ccc(N/C(=C2\C(=O)Nc3ccc([N+](=O)[O-])cc32)c2ccccc2)cc1 [Example 141, (Z)-3-[1-(4-morpholinomethylcarbonylaminomethyl-phenylamino)-1-phenyl-methylidene]-5-nitro-2-indolinone]
The melting point of the first is lower: 247 to 249 °C for the first, 290 to 295 °C for the second.

First: Cc1cccc(/C(Nc2ccc(CN(C)C)cc2)=C2/C(=O)Nc3ccccc32)c1 [Example 213, (Z)-3-[1-(4-dimethylaminomethyl-phenylamino)-1-(m-tolyl)-methylidene]-2-indolinone]
Second: CN(C)CCN(C(=O)c1ccccc1)c1ccc(N/C(=C2\C(=O)Nc3ccccc32)c2ccccc2)cc1 [Example 452, (Z)-3-[1-(4-(N-(2-dimethylaminoethyl)-N-benzoyl-amino)-phenylamino)-1-phenyl-methylidene]-2-indolinone]
The melting point of the first is lower: 224 to 226 °C for the first, 272 to 274 °C for the second.

With `CN(CC(=O)O)S(=O)(=O)c1ccc(N/C(=C2\C(=O)Nc3ccccc32)c2ccccc2)cc1` [Example 409, (Z)-3-{1-[4-(N-carboxymethyl-N-methyl-aminosulphonyl)-phenylamino]-1-phenyl-methylidene}-2-indolinone] the melting point was 237 °C (dec.).
In the case of `O=C1Nc2ccc([N+](=O)[O-])cc2/C1=C(/Nc1ccc(N2CCOCC2)cc1)c1ccccc1` [Example 80, (Z)-3-[1-(4-morpholinophenylamino)-1-phenyl-methylidene]-5-nitro-2-indolinone], the melting point is reported as greater than 300 °C.
With `CC(C)(C)OC(=O)N(Cc1ccccc1)Cc1ccc(N/C(=C2\C(=O)Nc3ccc([N+](=O)[O-])cc32)c2ccccc2)cc1` [Example 236, (Z)-3-{1-[4-(N-benzyl-N-tert.butoxycarbonyl-aminomethyl)-phenylamino]-1-phenyl-methylidene}-5-nitro-2-indolinone] the melting point was 202 to 203 °C (dec.).
For `O=CNc1ccc(N/C(=C2\C(=O)Nc3ccc([N+](=O)[O-])cc32)c2ccccc2)cc1` [Example 92, (Z)-3-[1-(4-formylamino-phenylamino)-1-phenyl-methylidene]-5-nitro-2-indolinone], the melting point was 355 to 356 °C (dec.).
For `CC(C)(C)OC(=O)NCc1ccc(N/C(=C2\C(=O)Nc3ccc([N+](=O)[O-])cc32)c2ccc(CNC(=O)c3ccccc3C(=O)O)cc2)cc1` [Example 147, (Z)-3-{1-[4-tert.butoxycarbonylaminomethyl-phenylamino]-1-[4-(2-carboxyphenyl)-carbonylaminomethyl-phenyl]-methylidene}-5-nitro-2-indolinone], the melting point was 138 °C (dec.).
